Source: paper PMC12097015, “Development of MDM2‐Targeting PROTAC for Advancing Bone Regeneration” (Advanced Science, 2025)

What was measured:
MDM2 [1] = target: T1, MDM2 (Homo sapiens, UniProt Q00987); experiment: Immunoprecipitation of MDM2 ubiquitination in HeLa cells overexpressing MDM2 and HA-tagged ubiquitin; assay type: cell-based; set-up: host or cells: HeLa; conditions: 10 µM, within 60 min
Procedure: (§1) HeLa cells were cultured in DMEM (Welgene, LM001‐05) supplemented with 10% FBS (Welgene, S001‐07). For transient transfection, the cells were seeded at ≈70% confluence. The following day, transfection was performed using Lipofectamine 3000 (Invitrogen, L3000015) for 24 h according to the manufacturer's protocol. The cells were transfected with 100 ng of EGFP‐MDM2 per well in the 96‐well plate and were transfected with 2 µg of MDM2 WT and 2 µg of HA‐ubiquitin, total 4 µg per well in the 6‐well plate.
Hela cells (passage. 5) 7 × 10^5 cells well^−1 were seeded in a 6‐well plate and allowed to adhere overnight (o/n). The next day, WT MDM2 and HA‐ubiquitin plasmid transfection was performed using Lipofectamine 3000 for 24 h, according to the manufacturer's instructions. After transfection for 24 h, cells were treated with CL144 for different time intervals, including 15, 30, and 60 min. After drug treatment, the cells were lysed using immunoprecipitation (IP) lysis buffer (ThermoFisher, 87788) supplemented with a protease inhibitor cocktail (PIC). The cell lysates were harvested for subsequent experiments. The cell lysate was incubated with a HA‐tag primary antibody (1′Ab) at 4 °C overnight to capture the target protein complexes. The next day, the antibody–protein complexes were bound to the beads for 1 h. The beads were washed three times with IP lysis buffer to remove nonspecific binding. […]
Target sequence in this assay (Q00987 whole entry): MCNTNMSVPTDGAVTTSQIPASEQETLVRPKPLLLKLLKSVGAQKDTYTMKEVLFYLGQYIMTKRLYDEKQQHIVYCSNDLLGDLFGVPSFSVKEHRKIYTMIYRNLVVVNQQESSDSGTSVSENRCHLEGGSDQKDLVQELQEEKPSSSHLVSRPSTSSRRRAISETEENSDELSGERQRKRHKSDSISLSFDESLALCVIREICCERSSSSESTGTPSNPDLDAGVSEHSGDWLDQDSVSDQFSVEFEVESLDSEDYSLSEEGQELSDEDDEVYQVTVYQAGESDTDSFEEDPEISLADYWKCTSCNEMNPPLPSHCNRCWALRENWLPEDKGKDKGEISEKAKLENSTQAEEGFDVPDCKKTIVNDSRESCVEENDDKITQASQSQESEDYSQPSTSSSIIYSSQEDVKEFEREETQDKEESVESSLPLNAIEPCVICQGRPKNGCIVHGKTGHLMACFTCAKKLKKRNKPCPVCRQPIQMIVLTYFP

RUNX2, OCN, OPN = experiment: qPCR of osteogenic differentiation marker genes in hBMSCs; assay type: cell-based, human
Procedure: Total RNA was extracted from hBMSCs treated with Nutlin‐3 or CL144, as well as from control cells, using Trizol (Invitrogen, 15596026), according to the manufacturer's instructions. cDNA was synthesized using TOPscript RT DryMIX (Enzynomics, RT200). Human gene‐specific primer sequences were used. (Used primer sequences see Table S2, Supporting Information). qPCR was conducted using the SYBR Green qPCR Master Mix (Applied biosystems, 4 309 155). Relative gene expression levels were calculated using the ΔΔCt method with GAPDH as the internal control for normalization.

MDM2 [2] = target: T1, MDM2; experiment: MDM2 degradation by western blot in hBMSCs; assay type: cell-based; set-up: endogenous in cells; host or cells: hBMSCs
Procedure: Human Bone Marrow‐derived Mesenchymal Stem Cells (hBMSCs) were provided by Professor Lee's laboratory, and cells from passages four to nine were used for all experiments. hBMSCs were cultured in alpha‐minimum essential medium (Welgene, LM008‐01) supplemented with 10% Fetal Bovine Serum (FBS) (Gibco, US origin, 16000–044) and 1% penicillin/streptomycin (Gibco, 15140‐122).
After discarding the medium and washing the cells twice with cold dPBS, the cells were collected using a scraper and lysed using RIPA buffer (GenDEPOT, R4200‐010) containing protease and phosphatase inhibitors (GenDEPOT, P3200‐001). The collected samples were centrifuged at 13 200 rpm for 10 min at 4 °C, and the supernatant containing total protein was collected. SDS‐PAGE gels (10–12%) were prepared, and protein samples were mixed with 5X loading buffer containing reducing agent (Biosesang, S2002) and heated at 98 °C for 5 min. Equal amounts of protein samples were loaded onto a gel, separated by electrophoresis, and transferred onto nitrocellulose membranes using a Dry Transfer Stacks Kit (Invitrogen, IB23001). The membrane was blocked with 5% nonfat milk in 1X TBST for 1 h at room temperature to prevent nonspecific binding. The membranes were incubated with primary antibodies specific to the target proteins overnight at 4 °C with gentle shaking. The next day, the membrane was washed three times with TBST at 10 min intervals to remove unbound primary antibodies. The membranes were incubated with secondary antibodies (anti‐rabbit and anti‐mouse) conjugated to horseradish peroxidase (HRP) for 1 h at room temperature. The membrane was washed three times with 1X TBST at 10 min intervals to remove unbound secondary antibodies. After washing, a chemiluminescent substrate (ECL, Millipore, WBULS0100) was applied to the membrane to visualize protein bands using a chemiluminescence detector (for the antibodies used, see Table S2, Supporting Information).
The DC50 and Dmax values were calculated by western blot band quantification according to compound concentrations. The quantification value was normalized to the value relative to the untreated group and calculated using the sigmoidal dose‐response (variable slope) equation in GraphPad Prism.
Target sequence in this assay (Q00987 whole entry): as above

EGFP‐MDM2 = experiment: EGFP-MDM2 fluorescence / live imaging degradation assay; assay type: cell-based
Procedure: as §1
To construct the EGFP‐MDM2 plasmid DNA, MDM2 WT was amplified by PCR using specific primers. The PCR products were digested with BamH1 and EcoR1 to generate compatible ends. The plasmid backbone, EGFP‐C1, previously digested with the same enzyme, was ligated into the digested PCR product using T4 ligase (Biolabs, M0202S). The resulting plasmid construct was confirmed using restriction enzyme digestion and DNA sequencing. MDM2 WT (#16233) and HA‐ubiquitin (#18712) were purchased from Addgene (used primer sequences, see Table S2, Supporting Information).
Real‐time Live cell imaging (phase contrast, EGFP fluorescence) was performed to monitor EGFP‐MDM2 intensity at 7 min intervals after compound treatment using Cytation5 (Agilent) laser autofocus conditions to capture EGFP fluorescence to assess intensity. For fluorescence imaging, the cells were fixed using 4% PFA and washed three times with 1X dPBS. Fluorescence imaging was performed using the Cytation5. The intensity of fluorescence was assessed by tracking the fluorescence of individual cells in each image using the Time‐lapse analyzer or ROI measure feature of the Fiji ImageJ software (Version 1.54 h, USA).

MDM2 [3] = target: T1, MDM2; experiment: Microscale thermophoresis (MST) binding assay; set-up: made in house; host or cells: E. coli BL21 (DE3); conditions: His-Tag MDM2, n = 3, read-out: dissociation constant (Kd)
Target sequence in this assay (Q00987 whole entry, species assumed): as the sequence (Q00987 whole entry) above
Procedure: E. coli BL21 (DE3) competent cells transformed with pSPEL870 were used to express MDM2 protein.^[ [27] ^] The recombinant strain was cultured in 500 mL 2XYT at 37 °C until the optical density (OD600 ) reached 0.5. Protein expression was induced by adding 0.2 mM isopropyl β‐D‐1‐thiogalactopyranoside (IPTG; Bioshop, Canada) at 20 °C overnight. […] The protein was purified using Ni‐NTA resin (Qiagen, Germany), according to the manufacturer's protocol. The purified protein was buffer exchanged with phosphate‐buffered saline (PBS, pH 7.4) using a centrifugal filter unit (MWCO: 10 K; Merck Millipore, USA). The protein was stored at –20 °C in PBS with 20% glycerol and 1 mM dithiothreitol (DTT).
The His‐Tag MDM2 protein was labeled using a His‐Tag Labeling Kit RED‐tris‐NTA second Generation (NanoTemper, MO‐L018) according to the manufacturer's instructions. […] The final mixtures were transferred to capillaries (NanoTemper, MO‐K022) and the samples were measured using a Monolith NT.115Pico (NanoTemper) instrument (auto LED power; medium MST power). […] The signals were represented as normalized changes in fluorescence (Fnorm ) upon ligand binding. Baseline‐corrected normalized fluorescence (DFnorm ) was obtained from Fnorm values using MO Affinity Analysis, and the dissociation constants (Kd ) were determined by curve fitting (variable slope model) using GraphPad Prism 10.

SMILES: COc1ccc(C2=N[C@H](c3ccc(Cl)cc3)[C@H](c3ccc(Cl)cc3)N2C(=O)N2CCN(CC(=O)NCCCCCCCCOc3cccc4c3C(=O)N(C3CCC(=O)NC3=O)C4=O)C(=O)C2)c(OC(C)C)c1 (stereo in doubt) [CL144]
- increase of ubiquitination level of MDM2 (MDM2 [1]): 2.65 fold
- OPN mRNA level (RUNX2, OCN, OPN; 10 μΜ): increased
- expression levels of RUNX2 and OCN (mRNA) compared to Nutlin‐3 (RUNX2, OCN, OPN; same concentrations): significantly increased
- MDM2 degradation, dose-dependent effect (MDM2 [2]; 0.1 µM to 10 µM): robust MDM2 degradation
- MDM2 degradation (MDM2 [2]; 10 µM, neo-substrate experiment): ≈ 70%
- decrease in MDM2 levels compared to the basal level (MDM2 [2]; 10 μΜ for 1 h): over 80%
- maximal degradation concentration (Dmax) (MDM2 [2]; quantified western blot, 1 nM to 50 µM, n = 2): 1 μΜ
- DC50 (MDM2 [2]; quantified western blot, 1 nM to 50 µM, n = 2, read-out: half‐maximal degradation concentration (DC50)): 0.09 µM
- EGFP‐MDM2 maximal degradation efficacy (EGFP‐MDM2; 1 µM): 84%
- Dmax (EGFP signal intensity) (EGFP‐MDM2; EGFP‐MDM2 expressing cells, 1 nM to 50 µM, n = 3): 1 μΜ
- DC50 (EGFP‐MDM2; EGFP‐MDM2 expressing cells, 1 nM to 50 µM, n = 3, read-out: DC50 (EGFP signal intensity)): 0.25 µM
- concentration at which maximum degradation efficiency was achieved (EGFP‐MDM2; live imaging, 0.01 to 10 µM): 10 µM
- nuclear EGFP signal (EGFP‐MDM2; live imaging, treatment for 4 h): almost completely turned off the nuclear EGFP signal
- Kd (MDM2 [3]): 1.12 µM
